Measured values reported in patent US20220402948A1, “EGFR INHIBITOR, COMPOSITION AND PREPARATION METHOD THEREFOR” (BETTA PHARMACEUTICALS CO., LTD., priority 2019, published 2022).

Assays:
EGFRΔ19del/T790M/C797S = EGFRΔ19del/T790M/C797S (Homo sapiens, UniProt P00533, T790M/C797S, form not given); assay: EGFR Δ19del/T790M/C797S kinase test (mobility variation analysis, Caliper EZ Reader); format: biochemical; settings: kinase enzymatic activity, Table 1
Summary of the method: (§1)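 Kinase pre-incubated with compound 10 minutes at room temperature, then ATP plus peptide substrate added; substrate conversion read by mobility shift after stop solution. Percent inhibition normalized to no-compound and no-enzyme controls; IC50 from variable-slope log(inhibitor) fit.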

A431 = A431 cell proliferation assay (CellTiter Glo, 72 hours); format: cell-based; settings: Homo sapiens, A-431, 72 h, cell proliferation, A431, 72 hours, Table 2; read-out: A431 IC50
Summary of the method: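 A431 cells (2000/well) exposed 72 h to compound at 1000 nM down to 0.2 nM in 3-fold steps, 0.1% DMSO (0.5% for some series). Viability by CellTiter-Glo luminescence; IC50 by four-parameter nonlinear regression.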

[1] = biological target: Ba/F3-EGFR wild-type cell line (Homo sapiens, UniProt P00533); assay: Ba/F3-EGFR wild-type cell proliferation assay (CellTiter Glo, 72 hours); format: cell-based; settings: Table 2, read-out: EGFR WT IC50
Ba/F3-EGFR wild-type cell line, sequence (P00533 whole entry, stated change not applied): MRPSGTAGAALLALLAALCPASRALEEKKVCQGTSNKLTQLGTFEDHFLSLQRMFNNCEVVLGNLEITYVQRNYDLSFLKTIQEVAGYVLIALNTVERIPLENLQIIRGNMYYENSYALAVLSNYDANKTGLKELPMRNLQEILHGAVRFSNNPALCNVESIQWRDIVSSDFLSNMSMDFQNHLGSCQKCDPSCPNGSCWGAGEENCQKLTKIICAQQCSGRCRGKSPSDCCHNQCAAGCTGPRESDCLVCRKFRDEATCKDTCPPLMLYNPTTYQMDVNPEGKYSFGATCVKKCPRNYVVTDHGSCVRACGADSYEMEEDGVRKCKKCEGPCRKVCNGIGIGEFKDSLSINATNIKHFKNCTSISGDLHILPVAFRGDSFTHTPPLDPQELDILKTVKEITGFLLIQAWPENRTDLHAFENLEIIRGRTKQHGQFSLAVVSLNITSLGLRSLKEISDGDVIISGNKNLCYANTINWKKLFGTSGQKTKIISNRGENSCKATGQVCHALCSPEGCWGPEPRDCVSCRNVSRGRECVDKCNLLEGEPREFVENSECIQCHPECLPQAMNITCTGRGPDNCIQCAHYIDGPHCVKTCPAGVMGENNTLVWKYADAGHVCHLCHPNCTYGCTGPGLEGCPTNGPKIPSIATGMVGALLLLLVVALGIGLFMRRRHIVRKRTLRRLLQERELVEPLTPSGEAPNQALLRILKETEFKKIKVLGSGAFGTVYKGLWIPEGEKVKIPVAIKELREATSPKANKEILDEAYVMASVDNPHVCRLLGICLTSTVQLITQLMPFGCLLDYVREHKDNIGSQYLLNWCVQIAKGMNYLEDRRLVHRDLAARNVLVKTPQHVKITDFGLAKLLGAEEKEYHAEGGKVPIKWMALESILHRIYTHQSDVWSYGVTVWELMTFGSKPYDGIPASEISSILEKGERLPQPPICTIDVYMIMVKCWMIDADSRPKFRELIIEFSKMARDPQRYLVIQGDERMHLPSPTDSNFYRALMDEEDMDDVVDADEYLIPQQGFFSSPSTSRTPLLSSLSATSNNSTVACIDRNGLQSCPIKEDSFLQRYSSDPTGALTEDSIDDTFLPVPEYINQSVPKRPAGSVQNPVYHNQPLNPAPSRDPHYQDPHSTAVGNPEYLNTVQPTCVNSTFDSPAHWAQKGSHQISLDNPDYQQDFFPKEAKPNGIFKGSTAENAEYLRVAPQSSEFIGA
Summary of the method: (§2)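 Ba/F3 cells stably overexpressing wild-type EGFR or EGFR Δ19del/T790M/C797S were seeded at 2000 cells/well and incubated 72 h with compound. Viability was read by CellTiter-Glo luminescence, and IC50 came from a four-parameter logistic fit of signal against log concentration.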

[2] = biological target: Ba/F3 cells with EGFR Δ19del/T790M/C797S mutation gene stably overexpressed (Homo sapiens, UniProt P00533, T790M/C797S, cells depend on it, form not given); assay: Ba/F3-Δ19del/T790M/C797S cell proliferation assay (CellTiter Glo, 72 hours); format: cell-based; settings: Table 2, read-out: EGFR Δ19del/T790M/C797S IC50
Summary of the method: as §2

IGF1R = IGF1R (Homo sapiens, UniProt P08069); assay: IGF1R kinase test (mobility variation analysis, Caliper EZ Reader); format: biochemical; settings: kinase enzymatic activity, Table 1; read-out: EGFR IGF1R IC50
IGF1R, sequence (P08069 31-1367, species assumed): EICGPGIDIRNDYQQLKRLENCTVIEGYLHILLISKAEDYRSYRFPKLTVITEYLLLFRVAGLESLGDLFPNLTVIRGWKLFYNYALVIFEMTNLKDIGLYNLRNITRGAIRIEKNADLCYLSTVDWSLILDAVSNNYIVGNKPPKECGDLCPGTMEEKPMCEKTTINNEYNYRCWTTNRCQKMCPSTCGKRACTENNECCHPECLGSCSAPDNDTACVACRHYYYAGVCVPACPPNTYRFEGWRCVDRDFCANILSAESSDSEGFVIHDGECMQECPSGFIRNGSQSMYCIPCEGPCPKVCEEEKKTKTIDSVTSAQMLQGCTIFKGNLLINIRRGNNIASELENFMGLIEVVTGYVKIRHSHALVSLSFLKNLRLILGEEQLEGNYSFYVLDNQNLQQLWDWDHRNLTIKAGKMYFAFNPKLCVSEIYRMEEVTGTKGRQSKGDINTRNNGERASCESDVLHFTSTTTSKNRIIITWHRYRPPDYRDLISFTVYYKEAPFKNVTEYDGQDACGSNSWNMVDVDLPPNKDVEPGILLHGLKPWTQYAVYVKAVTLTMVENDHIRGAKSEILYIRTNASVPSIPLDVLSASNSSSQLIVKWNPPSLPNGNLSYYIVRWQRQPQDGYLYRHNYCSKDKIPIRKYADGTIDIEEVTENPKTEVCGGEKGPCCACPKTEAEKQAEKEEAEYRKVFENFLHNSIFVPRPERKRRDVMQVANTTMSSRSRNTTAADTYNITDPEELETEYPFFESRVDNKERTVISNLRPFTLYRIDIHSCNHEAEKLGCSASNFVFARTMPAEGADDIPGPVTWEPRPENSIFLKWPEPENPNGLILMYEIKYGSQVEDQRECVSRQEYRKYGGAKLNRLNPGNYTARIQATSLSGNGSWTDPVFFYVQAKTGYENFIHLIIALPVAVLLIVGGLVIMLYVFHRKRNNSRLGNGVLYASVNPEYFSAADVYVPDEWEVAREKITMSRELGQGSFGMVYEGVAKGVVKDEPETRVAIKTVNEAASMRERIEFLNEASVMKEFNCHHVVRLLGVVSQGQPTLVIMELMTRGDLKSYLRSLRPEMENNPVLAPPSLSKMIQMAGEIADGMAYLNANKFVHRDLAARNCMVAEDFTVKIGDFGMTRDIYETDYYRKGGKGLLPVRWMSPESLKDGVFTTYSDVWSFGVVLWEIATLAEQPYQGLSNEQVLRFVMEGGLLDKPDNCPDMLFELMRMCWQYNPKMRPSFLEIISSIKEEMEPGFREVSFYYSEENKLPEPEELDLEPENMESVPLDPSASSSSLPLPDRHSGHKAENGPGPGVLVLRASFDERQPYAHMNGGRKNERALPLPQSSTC
Summary of the method: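 Kinase preincubated 10 min at room temperature with compound (10-point 3-fold series, top 3000 nM), then ATP and substrate added and reacted at room temperature. Substrate conversion read by mobility-shift (Caliper EZ Reader); % inhibition vs no-enzyme and no-compound controls fitted to variable-slope curve for IC50.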

EGFR WT = EGFR WT (Homo sapiens, UniProt P00533); assay: EGFR WT kinase test (mobility variation analysis, Caliper EZ Reader); format: biochemical; settings: kinase enzymatic activity, Table 1
EGFR WT, sequence (P00533 25-1210): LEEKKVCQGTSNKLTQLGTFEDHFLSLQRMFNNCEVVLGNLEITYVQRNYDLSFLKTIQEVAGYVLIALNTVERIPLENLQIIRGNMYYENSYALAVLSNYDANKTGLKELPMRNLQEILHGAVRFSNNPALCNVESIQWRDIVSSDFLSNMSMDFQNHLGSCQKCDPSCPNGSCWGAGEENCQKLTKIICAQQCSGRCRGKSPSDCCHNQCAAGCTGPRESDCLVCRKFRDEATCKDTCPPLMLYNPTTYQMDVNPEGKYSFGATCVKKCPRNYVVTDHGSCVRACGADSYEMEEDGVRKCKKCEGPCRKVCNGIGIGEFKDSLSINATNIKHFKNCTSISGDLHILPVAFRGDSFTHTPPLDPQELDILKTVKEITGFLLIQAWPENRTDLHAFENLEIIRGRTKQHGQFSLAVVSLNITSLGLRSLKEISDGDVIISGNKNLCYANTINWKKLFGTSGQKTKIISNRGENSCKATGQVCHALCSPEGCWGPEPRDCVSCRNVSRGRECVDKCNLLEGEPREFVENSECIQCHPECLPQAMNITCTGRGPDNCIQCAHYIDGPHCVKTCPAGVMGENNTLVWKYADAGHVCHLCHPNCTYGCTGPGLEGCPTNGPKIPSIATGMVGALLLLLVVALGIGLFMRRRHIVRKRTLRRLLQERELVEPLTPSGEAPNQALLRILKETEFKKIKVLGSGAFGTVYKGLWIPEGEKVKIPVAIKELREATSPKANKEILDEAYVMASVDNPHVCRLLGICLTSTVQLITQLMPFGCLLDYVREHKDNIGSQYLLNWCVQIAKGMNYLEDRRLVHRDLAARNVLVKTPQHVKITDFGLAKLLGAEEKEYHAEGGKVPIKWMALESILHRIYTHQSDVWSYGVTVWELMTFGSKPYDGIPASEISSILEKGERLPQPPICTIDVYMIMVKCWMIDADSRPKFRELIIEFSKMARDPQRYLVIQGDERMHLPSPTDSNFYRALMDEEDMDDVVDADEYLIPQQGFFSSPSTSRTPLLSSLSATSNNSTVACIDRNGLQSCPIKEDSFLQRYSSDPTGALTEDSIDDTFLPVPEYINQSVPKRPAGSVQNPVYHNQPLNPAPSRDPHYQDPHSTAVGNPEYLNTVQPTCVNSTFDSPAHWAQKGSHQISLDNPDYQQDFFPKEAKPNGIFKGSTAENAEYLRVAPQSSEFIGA
Summary of the method: as §1

EGFRΔ19del/T790M/C797S, sequence (P00533 with tags, fused parts or gaps DEL746-750/T790M/C797S, form open): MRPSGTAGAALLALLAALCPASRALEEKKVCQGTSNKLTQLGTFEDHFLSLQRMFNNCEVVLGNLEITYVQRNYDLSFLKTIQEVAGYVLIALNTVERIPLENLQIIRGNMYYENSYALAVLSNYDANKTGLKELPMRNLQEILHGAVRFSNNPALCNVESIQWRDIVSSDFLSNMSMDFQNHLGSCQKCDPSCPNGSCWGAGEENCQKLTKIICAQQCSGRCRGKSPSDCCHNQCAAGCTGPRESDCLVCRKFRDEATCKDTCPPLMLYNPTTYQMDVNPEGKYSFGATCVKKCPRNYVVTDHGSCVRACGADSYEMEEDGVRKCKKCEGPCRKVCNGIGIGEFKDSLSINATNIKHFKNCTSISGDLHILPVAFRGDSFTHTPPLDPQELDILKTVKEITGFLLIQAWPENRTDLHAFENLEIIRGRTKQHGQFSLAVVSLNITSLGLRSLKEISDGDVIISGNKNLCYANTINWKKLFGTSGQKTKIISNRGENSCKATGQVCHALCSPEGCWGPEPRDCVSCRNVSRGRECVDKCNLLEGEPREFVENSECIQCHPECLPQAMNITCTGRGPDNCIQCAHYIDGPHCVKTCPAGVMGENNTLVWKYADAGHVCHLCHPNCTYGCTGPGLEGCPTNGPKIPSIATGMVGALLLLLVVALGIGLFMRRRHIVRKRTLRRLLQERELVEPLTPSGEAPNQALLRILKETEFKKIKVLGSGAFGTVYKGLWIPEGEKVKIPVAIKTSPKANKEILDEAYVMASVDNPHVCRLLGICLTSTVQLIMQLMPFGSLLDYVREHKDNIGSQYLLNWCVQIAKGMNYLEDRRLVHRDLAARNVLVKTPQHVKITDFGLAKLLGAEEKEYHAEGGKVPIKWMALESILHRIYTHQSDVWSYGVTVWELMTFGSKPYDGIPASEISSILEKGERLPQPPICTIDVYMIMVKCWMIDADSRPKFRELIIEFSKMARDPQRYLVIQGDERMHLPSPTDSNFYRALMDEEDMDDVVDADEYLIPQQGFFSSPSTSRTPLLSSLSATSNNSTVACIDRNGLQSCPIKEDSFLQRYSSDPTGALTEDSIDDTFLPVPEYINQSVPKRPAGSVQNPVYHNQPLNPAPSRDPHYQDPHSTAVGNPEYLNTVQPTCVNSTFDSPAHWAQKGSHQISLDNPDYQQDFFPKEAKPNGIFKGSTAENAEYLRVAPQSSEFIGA

Row | Structure (SMILES) | IC50 (EGFRΔ19del/T790M/C797S) | IC50 (A431) | GI50 [1] | GI50 [2] | IC50 (IGF1R) | IC50 (EGFR WT)
1 | COc1cc(Nc2ncc(Br)c(Nc3ccc(-c4cnn(C)n4)c(F)c3P(C)(C)=O)n2)c(C)cc1N1CCC(N2CCN(C)CC2)CC1 [Compound K-012, (6-((5-Bromo-2-((5-methoxy-2-methyl-4-(4-(4-methylpiperazin-1-yl)piperidin-1-yl)phenyl)amino)pyrimidin-4-yl)amino)-2-fluoro-3-(2-methyl-2H-1,2,3-triazol-4-yl)phenyl)diniethylphosphine oxide] | 0.19 nM | 5220 nM | 46 nM | 2.6 nM | 35 nM | 12 nM
2 | C#Cc1cncc(-c2ccc(Nc3nc(Nc4cc(CC)c(N5CCC(N6CCN(C)CC6)CC5)cc4OC)ncc3Br)c(P(C)(C)=O)c2)n1 [Compound K-013, (2-((5-Bromo-2-((5-ethyl-2-methoxy-4-(4-(4-methylpiperazin-1-yl)piperidin-1-yl)phenyl)amino)pyrimidin-4-yl)amino)-5-(6-ethynylpyrazin-2-yl)phenyl)dimethylphosphine oxide] | 0.3 nM | 1420 nM | 70 nM | 15.2 nM | 166 nM | 22.1 nM
3 | C#Cc1cnc(-c2ccc(Nc3nc(Nc4cc(OC)c(N5CCC(N6CCN(C)CC6)CC5)cc4C)ncc3Br)c(P(C)(C)=O)c2)cn1 [Compound K-014, (2-((5-Bromo-2-((5-methoxy-2-methyl-4-(4-(4-methylpiperazin-1-yl)piperidin-1-yl)phenyl)imino)pyrimidin-4-yl)amino)-5-(5-ethynylpyrazin-2-yl)phenyl)dimethylphosphine oxide] | 0.5 nM | 816 nM | 56 nM | 7.6 nM | 50.5 nM | 32.5 nM
4 | COc1cc(Nc2ncc(Br)c(Nc3ccc(-c4cnn(C)n4)cc3P(C)(C)=O)n2)c(C)cc1N1CCOCC1 [Compound K-015, (2-((5-Bromo-2-((5-methoxy-2-methyl-4-morpholinophenyl)amino)pyrimidin-4-yl)amino)-5-(2-methyl-2H-1,2,3-triazol-4-yl)phenyl)dimethylphosphine oxide] | 0.2 nM | 953 nM | 178 nM | 13.6 nM | 56.6 nM | 27.4 nM
5 | C#Cc1ccc(-c2ccc(Nc3nc(Nc4cc(C)c(N5CCC(N6CCN(C)CC6)CC5)cc4OC)ncc3Br)c(P(C)(C)=O)c2)s1 [Compound K-016, (2-((5-Bromo-2-((2-methoxy-5-methyl-4-(4-(4-methylpiperazin-1-yl)piperidin-1-yl)phenyl)amino)pyrimidin-4-yl)amino)-5-(5-ethynylthiophen-2-yl)phenyl)dimethylphosphine oxide] | 0.5 nM | 497 nM | 145 nM | 15.3 nM | 94 nM | 13.1 nM
6 | COc1cc(Nc2ncc(Br)c(Nc3ccc(-c4cnccn4)cc3P(C)(C)=O)n2)c(C)cc1N1CCC(N2CCN(C)CC2)CC1 [Compound K-017, (2-((5-Bromo-2-((5-methoxy-2-methyl-4-(4-(4-methylpiperazin-1-yl)piperidin-1-yl)phenyl)amino)pyrimidin-4-yl)amino)-5-(pyrazin-2-yl)phenyl)dimethylphosphine oxide] | 0.5 nM | 812 nM | 445 nM | 12 nM | 39.1 nM | 14.4 nM
7 | COc1cnn(-c2ccc(Nc3nc(Nc4cc(OC)c(N5CCC(N6CCN(C)CC6)CC5)cc4C)ncc3Br)c(P(C)(C)=O)c2)c1 [Compound K-018, (2-((5-Bromo-2-((5-methoxy-2-methyl-4-(4-(4-methylpiperazin-1-yl)piperidin-1-yl)phenyl)amino)pyrimidin-4-yl)amino)-5-(4-methoxy-1H-pyrazol-1-yl)phenyl)dimethylphosphine oxide] | 0.2 nM | 1060 nM | 295 nM | 9.7 nM | 67.2 nM | 17.1 nM
8 | COc1cc(Nc2ncc(Br)c(Nc3ccc(-c4nccs4)cc3P(C)(C)=O)n2)c(C)cc1N1CCC(N2CCN(C)CC2)CC1 [Compound K-019, (2-((5-Bromo-2-((5-methoxy-2-methyl-4-(4-(4-methylpiperazin-1-yl)piperidin-1-yl)phenyl)amino)pyrimidin-4-yl)amino)-5-(thiazol-2-yl)phenyl)dimethylphosphine oxide] | 0.2 nM | 535 nM | 48.7 nM | 16 nM | 33.1 nM | 14.7 nM
9 | CCc1cc(Nc2ncc(Br)c(Nc3ccc(-n4cc(OC)cn4)cc3P(C)(C)=O)n2)c(OC)cc1N1CCC(N2CCCCC2)CC1 [Compound K-020] | 0.3 nM | 1130 nM | 226 nM | 9.2 nM | 126 nM | 22 nM
10 | COc1cc(Nc2ncc(Br)c(Nc3ccc(-c4cnn(C)n4)cc3P(C)(C)=O)n2)c(C)cc1N1CCC(N2CCOCC2)CC1 [Compound K-021, (2-((5-Bromo-2-((5-methoxy-2-methyl-4-(4-morpholinopiperidin-1-yl)phenyl)amino)pyrimidin-4-yl)amino)-5-(2-methyl-2H-1,2,3-triazol-4-yl)phenyl)dimethylphosphine oxide] | 0.3 nM | 3870 nM | 84 nM | 2.3 nM | 21.6 nM | 8.4 nM
11 | COc1cc(Nc2ncc(Br)c(Nc3ccc(-c4cnccn4)cc3P(C)(C)=O)n2)c(C)cc1N1CCOCC1 [Compound K-022] | 0.2 nM | 1460 nM | 281 nM | 16.5 nM | 52.5 nM | 31.8 nM
12 | COc1cnn(-c2ccc(Nc3nc(Nc4cc(OC)c(N5CCOCC5)cc4C)ncc3Br)c(P(C)(C)=O)c2)c1 [Compound K-023, (2-((5-Bromo-2-((5-methoxy-2-methyl-4-morpholinophenyl)amino)pyrimidin-4-yl)amino)-5-(4-methoxy-1H-pyrazol-1-yl)phenyl)dimethylphosphine oxide] | 0.2 nM | 1280 nM | 89.5 nM | 5 nM | 136 nM | 41.5 nM
13 | COc1cc(Nc2ncc(Br)c(Nc3ccc(-c4nccs4)cc3P(C)(C)=O)n2)c(C)cc1N1CCOCC1 [Compound K-024, (2-((5-Bromo-2-((5-methoxy-2-methyl-4-morpholinophenyl)amino)pyrimidin-4-yl)amino)-5-(thiazol-2-yl)phenyl)dimethylphosphine oxide] | 0.3 nM | 601 nM | 172 nM | 15.6 nM | 71.1 nM | 35 nM
14 | COc1cc(Nc2ncc(Br)c(Nc3ccc(-c4cnn(C)n4)c(F)c3P(C)(C)=O)n2)c(C)cc1N1CCOCC1 [Compound K-025, (6-((5-Bromo-2-((5-methoxy-2-methyl-4-morpholinophenyl)amino)pyrimidin-4-yl)amino)-2-fluoro-3-(2-methyl-2H-1,2,3-triazol-4-yl)phenyl)dimethylphosphine oxide] | 0.23 nM | > 10000 nM | 220 nM | 12.6 nM | 69 nM | 39 nM
